This note sets out measurements from ChEMBL document CHEMBL1201862, “PubChem BioAssay data set” (2004).

The source made the active and inactive calls.

Assay [1] has as its target FAD-linked sulfhydryl oxidase ALR (Homo sapiens, UniProt P55789). In words: ALR-catalysed DTT oxidation blockers – biochemical, H2O2 detection, luminescence, cherry-pick, dose response (AID 493248).
Assay [2] addresses T1, Fatty acid synthase (Homo sapiens, UniProt P49327). In words: inhibition of human FAS-TE enzyme activity – biochemical, endpoint fluorescence intensity, uHTS hits, dose response (AID 624327).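 Also: fluorescence from hydrolysis of an O-methyl fluorescein acyl ester substrate by the enzyme.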 It counts as functional.
For assay [3], the target named is T1, Fatty acid synthase. As to the kind of experiment: inhibition of human FAS-TE enzyme activity – biochemical, kinetic fluorescence intensity, dose response (AID 624326).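 Also: rate of fluorescence rise from hydrolysis of a fluorogenic O-methyl fluorescein ester substrate.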 Format: functional.
A further assay has as its system P388/ADR. As to the kind of experiment: cells. It counts as functional. The settings on record: Mus musculus.
The next assay deals with SN12K1. In words: cells. Format: functional. The settings on record: Homo sapiens.
The test system of another assay is P388. In words: cells. It counts as functional. The settings on record: Mus musculus.
The target in the next assay is T2, Aminopeptidase N (Plasmodium falciparum FcB1/Columbia, UniProt O96935).
T2 sequence (O96935 whole entry): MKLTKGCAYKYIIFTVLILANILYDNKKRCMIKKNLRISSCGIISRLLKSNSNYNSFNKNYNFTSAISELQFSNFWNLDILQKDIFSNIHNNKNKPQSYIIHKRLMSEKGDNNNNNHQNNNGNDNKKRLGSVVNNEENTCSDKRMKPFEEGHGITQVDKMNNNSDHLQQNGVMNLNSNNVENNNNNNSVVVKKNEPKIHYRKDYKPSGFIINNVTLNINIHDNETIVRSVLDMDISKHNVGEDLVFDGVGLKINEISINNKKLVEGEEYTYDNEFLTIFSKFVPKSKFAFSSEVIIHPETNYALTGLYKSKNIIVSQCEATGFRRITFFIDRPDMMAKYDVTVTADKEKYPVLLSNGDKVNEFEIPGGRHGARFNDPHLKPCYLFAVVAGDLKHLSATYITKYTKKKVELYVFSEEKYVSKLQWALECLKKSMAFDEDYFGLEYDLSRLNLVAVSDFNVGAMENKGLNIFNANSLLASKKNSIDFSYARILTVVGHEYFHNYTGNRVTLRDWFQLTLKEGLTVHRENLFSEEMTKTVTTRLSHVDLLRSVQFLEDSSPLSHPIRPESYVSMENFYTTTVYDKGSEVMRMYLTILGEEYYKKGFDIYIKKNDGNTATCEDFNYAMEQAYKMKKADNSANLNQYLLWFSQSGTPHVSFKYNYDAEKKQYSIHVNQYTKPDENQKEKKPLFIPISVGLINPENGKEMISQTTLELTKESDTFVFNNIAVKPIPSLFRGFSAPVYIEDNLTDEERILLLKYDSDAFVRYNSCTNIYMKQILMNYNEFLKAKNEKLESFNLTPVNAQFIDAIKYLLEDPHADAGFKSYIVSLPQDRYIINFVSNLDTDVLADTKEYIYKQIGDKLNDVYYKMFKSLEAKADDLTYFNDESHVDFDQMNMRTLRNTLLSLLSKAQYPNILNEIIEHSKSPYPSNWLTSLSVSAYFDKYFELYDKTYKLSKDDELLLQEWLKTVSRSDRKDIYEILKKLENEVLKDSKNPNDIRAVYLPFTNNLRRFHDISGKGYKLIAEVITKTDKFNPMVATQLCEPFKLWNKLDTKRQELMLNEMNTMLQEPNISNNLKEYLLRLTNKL
In words: malaria alanyl aminopeptidase activity blockers – biochemical, fluorogenic H-Leu-NHMec substrate, 1536-well (AID 1445). Further details: species or system Plasmodium falciparum 3D7, 3D7.

Assay [4] concerns the target T3, Heat shock factor protein 1 (Mus musculus, UniProt P38532).
T3 sequence (P38532 whole entry): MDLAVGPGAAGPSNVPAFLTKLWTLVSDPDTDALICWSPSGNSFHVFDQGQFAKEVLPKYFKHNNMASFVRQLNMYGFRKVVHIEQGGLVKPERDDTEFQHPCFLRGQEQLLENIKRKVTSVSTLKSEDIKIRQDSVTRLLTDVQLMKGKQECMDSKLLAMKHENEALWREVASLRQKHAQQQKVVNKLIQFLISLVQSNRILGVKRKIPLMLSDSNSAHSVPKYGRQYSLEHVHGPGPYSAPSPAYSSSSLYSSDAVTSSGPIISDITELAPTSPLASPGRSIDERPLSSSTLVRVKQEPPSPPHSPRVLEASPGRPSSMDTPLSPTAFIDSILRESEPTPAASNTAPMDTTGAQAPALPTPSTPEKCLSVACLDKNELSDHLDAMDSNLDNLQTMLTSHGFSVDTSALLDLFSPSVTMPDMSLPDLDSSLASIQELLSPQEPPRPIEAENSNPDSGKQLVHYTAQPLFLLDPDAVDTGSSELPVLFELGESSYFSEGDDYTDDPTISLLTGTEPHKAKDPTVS
As to the kind of experiment: enhancement of HSF1-driven luciferase signal – cell-based, NIH3T3, luminescence, dose retest, confirmation (AID 435004).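 Also: stress induced by proteasome inhibitor MG132 added 30 min after compound; luciferase reporter driven by HSF1 response element in NIH3T3 cells; actives raise luminescence as potentiators of the MG132 stress response.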 It counts as functional.

Assay [5] is described as follows: fluconazole-exposed Candida albicans growth modulators – fluorescence, retest, confirmation (AID 2467). It counts as functional, cell-based.
Assay [6] in a line: NIH-3T3 fibroblast cytotoxicity, dose response, cytotoxicity control, cell-based, fluorescence, Alamar Blue, secondary assay (AID 2327).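 Also: NIH-3T3 mouse fibroblasts cultured with fluconazole at 8 µg/mL.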 Format: functional.
Assay [7] in a line: blockers of HIV-1 envelope-mediated cell-cell fusion – cherry-pick, dose response (AID 652057). It counts as functional, cell-based.
The target of assay [8] is Induced myeloid leukemia cell differentiation protein Mcl-1 (Homo sapiens, UniProt Q07820). It counts as functional.
Sequence of Induced myeloid leukemia cell differentiation protein Mcl-1 (Q07820 whole entry): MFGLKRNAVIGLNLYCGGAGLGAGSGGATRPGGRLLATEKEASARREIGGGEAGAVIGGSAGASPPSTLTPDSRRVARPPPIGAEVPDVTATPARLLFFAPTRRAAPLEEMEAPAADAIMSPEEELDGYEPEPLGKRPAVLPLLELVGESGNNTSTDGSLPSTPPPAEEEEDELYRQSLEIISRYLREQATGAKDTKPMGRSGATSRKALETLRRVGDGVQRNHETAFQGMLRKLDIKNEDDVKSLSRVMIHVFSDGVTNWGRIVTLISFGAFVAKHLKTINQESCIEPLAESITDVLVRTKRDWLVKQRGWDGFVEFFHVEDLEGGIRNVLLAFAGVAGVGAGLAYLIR
A short description of assay [9]: NIH3T3 cell viability loss – ATP luminescence, mouse fibroblasts, counter-screen, dose response (AID 2010).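 Also: cells exposed to compound for about 90 hours before reading.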 It counts as functional, cell-based.
The nature of assay [10]: Trypanosoma cruzi growth suppression in host cells – NIH3T3 host cells, beta-gal luminescence, confirmation (AID 2044).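 Also: intracellular parasites grown in NIH/3T3 mouse fibroblasts as host cells; luminescent beta-galactosidase reporter signal from transgenic T. cruzi replicating inside host cells; inhibitors lower the luminescence signal.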 Format: functional, cell-based.
For the next assay, the system named is INS1. As to the kind of experiment: INS-1E survival protection against cytokine death – cell-based, luminescence, retest, dose response (AID 449756).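 Also: cell death triggered by IL-1 beta plus TNF-alpha plus IFN-gamma mixture; protective hits raise ATP signal compared with cytokine alone wells.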 Format: functional. Particulars: Rattus norvegicus.

Sequence of FAD-linked sulfhydryl oxidase ALR (P55789 whole entry): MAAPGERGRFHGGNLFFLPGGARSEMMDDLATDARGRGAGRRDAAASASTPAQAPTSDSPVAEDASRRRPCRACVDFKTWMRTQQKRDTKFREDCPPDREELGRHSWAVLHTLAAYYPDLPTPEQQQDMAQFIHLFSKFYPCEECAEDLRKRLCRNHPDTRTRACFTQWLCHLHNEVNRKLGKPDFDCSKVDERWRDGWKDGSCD
T1 sequence (P49327 whole entry): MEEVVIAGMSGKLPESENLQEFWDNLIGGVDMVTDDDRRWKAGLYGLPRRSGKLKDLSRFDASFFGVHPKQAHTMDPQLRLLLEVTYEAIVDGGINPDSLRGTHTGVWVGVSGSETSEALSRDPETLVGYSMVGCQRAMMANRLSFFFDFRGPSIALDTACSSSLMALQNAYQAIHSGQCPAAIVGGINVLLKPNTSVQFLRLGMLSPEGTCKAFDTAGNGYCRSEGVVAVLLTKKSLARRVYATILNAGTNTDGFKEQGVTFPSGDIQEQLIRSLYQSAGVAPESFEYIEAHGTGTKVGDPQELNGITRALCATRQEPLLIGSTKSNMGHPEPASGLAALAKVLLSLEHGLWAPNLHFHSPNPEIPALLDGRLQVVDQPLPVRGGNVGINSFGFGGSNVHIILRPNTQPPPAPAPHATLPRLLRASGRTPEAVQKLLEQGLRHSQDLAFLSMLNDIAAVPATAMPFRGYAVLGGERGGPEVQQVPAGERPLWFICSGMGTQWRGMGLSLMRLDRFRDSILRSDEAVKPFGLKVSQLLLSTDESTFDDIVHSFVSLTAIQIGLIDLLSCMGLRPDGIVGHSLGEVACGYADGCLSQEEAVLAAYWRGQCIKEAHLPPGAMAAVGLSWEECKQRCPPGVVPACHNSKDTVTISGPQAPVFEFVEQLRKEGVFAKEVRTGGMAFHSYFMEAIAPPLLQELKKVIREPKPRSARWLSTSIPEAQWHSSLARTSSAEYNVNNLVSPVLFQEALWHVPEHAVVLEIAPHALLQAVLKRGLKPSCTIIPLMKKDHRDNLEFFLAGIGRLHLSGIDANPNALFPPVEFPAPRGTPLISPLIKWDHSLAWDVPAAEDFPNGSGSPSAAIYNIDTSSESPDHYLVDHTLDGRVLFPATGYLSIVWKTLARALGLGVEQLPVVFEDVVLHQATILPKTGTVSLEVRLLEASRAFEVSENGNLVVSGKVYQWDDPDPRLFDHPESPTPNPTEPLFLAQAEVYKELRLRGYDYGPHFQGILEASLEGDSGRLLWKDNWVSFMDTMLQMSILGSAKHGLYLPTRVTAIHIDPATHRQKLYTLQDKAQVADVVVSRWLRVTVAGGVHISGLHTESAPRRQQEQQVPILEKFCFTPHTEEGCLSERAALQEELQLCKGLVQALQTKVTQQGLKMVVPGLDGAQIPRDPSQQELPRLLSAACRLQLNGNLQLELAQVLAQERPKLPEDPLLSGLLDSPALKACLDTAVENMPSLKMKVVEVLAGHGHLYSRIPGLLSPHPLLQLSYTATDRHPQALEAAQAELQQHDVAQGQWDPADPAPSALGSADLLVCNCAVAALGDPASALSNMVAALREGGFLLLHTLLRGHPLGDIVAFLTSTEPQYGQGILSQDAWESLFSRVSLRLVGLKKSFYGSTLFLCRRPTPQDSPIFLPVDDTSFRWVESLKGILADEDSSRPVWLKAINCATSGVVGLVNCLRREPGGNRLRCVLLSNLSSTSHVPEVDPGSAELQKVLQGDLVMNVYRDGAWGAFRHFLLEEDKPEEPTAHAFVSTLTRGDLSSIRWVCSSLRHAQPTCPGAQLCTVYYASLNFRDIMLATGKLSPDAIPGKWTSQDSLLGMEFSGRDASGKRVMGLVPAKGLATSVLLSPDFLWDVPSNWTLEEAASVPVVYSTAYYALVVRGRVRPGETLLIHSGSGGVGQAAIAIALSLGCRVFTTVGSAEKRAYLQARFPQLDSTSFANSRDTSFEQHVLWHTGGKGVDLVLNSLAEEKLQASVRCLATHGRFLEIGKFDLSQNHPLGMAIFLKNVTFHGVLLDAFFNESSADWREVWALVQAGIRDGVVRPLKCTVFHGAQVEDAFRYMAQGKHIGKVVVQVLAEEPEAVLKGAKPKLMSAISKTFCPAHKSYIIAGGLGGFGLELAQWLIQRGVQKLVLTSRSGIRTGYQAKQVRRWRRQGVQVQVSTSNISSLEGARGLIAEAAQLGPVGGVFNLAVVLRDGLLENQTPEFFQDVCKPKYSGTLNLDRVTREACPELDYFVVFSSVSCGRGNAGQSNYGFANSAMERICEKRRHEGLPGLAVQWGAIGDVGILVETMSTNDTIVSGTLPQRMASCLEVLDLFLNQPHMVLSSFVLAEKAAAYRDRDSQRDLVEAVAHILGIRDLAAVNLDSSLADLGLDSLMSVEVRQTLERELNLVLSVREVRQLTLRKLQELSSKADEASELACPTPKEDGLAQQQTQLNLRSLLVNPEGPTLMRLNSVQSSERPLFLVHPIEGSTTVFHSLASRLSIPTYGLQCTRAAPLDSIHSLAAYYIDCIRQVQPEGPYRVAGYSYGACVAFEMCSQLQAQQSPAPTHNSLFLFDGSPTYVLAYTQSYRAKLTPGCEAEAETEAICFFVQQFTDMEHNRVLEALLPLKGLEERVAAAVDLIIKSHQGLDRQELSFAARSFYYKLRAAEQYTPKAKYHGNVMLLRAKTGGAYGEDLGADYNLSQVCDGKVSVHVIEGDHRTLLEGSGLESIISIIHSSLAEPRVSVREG

For `CCc1n[nH]c(C(=O)N2CCCC(Nc3cccc(F)c3)C2)c1C` (configuration not stated), in assay [1], the AC50 is 2.88 µM (active).
Turning to `COc1ccc(CC(=N)NOC(=O)c2cccc([N+](=O)[O-])c2)cc1`, the IC50 is 18.3 µM (active) at Fatty acid synthase [2] and 14.6 µM (active) at Fatty acid synthase [3].
With `O=S(=O)(O)c1cc2ccc1/C=C\c1ccc(cc1S(=O)(=O)O)/N=N\c1ccc(c(S(=O)(=O)O)c1)/C=C\c1ccc(cc1S(=O)(=O)O)/N=N\2`, the GI50 with P388/ADR, with SN12K1 and in the assay with P388 was > 100 µM (inactive) in each case.
`Cc1ccc(S(=O)(=O)Nc2cc(C)c(O)cc2C)cc1`: in [1], the AC50 was 3.11 µM (active).
As to `CCO/C(O)=C1/C(CC)=Nc2ccccc2N=C1NS(=O)(=O)c1cc(Br)ccc1Br`, on Aminopeptidase N, the IC50 was 30.3 µM (active).
On to `CC(/C=N/N=C(N)N)=N\N=C(N)N`, for which the GI50 was 0.519 µM (active) in the assay with P388/ADR, 2.17 µM (inactive) in the assay with SN12K1 and 0.25 µM (active) with P388.
Take `Nc1ncc2c(n1)-c1ccccc1OC2`: the GI50 in the assay on SN12K1 and in the assay on P388 was > 100 µM (inactive) each time.
`Cc1ccc(C(=O)NCCSc2snnc2C)cc1`: the AC50 in [1] is 0.117 µM (active).
In the case of `O=C(CCC1CCCN(C(=O)c2ccc3cc[nH]c3c2)C1)NCc1ccc(F)c(F)c1` (configuration not stated), the IC50 on Aminopeptidase N was 33.1 µM (active). Moreover, the EC50 in assay [4] is 38.9 µM (active).
Consider `COC1C(O)CC(OC2CC(Oc3cc4cc5c(c(O)c4c(O)c3C)C(=O)[C@@H](OC3CC(OC4CC(OC6CC(C)(O)C(OC(C)=O)C(C)O6)C(O)C(C)O4)C(O)C(C)O3)[C@H]([C@H](OC)C(=O)[C@@H](O)[C@@H](C)O)C5)OC(C)C2OC(C)=O)OC1C` (some centres not stated) [CHROMOMYCIN], for which the results for the GI50 in the assay on P388/ADR and in the assay with SN12K1 were 0.132 µM (active) and 0.0034 µM (active), respectively.
As for `COc1cccc(NC(=O)CN2C(=O)COc3ccc(S(=O)(=O)N4CCC(C)CC4)cc32)c1`, the results for the IC50 on Fatty acid synthase [2] and on Fatty acid synthase [3] were 7.97 µM (active) and 6.57 µM (active), respectively. Further, the EC50 in [4] was > 260 µM (inactive).
Take `Cc1ccc(NC2CCCN(C(=O)c3cn4cc(Cl)ccc4n3)C2)cc1C` (configuration not stated): in assay [1], the AC50 was 1.01 µM (active).
For `COc1cc([C@@H]2c3cc4c(c(O[C@@H]5O[C@H]6CO[C@@H](C)O[C@H]6[C@H](O)[C@@H]5O)c3C[C@H]3COC(=O)[C@@H]32)OCO4)cc(OC)c1O`, the GI50 with SN12K1 was 10.9 µM (inactive); in the assay on P388 it was 2.16 µM (inactive).
Regarding `NC(S)=NNc1cccc(Cl)c1`, the EC50 in assay [5] is > 38 µM (not active); in assay [6], > 160 µM (inactive).
On to `Cc1cc(C)c(NS(=O)(=O)c2cccc3cccnc23)c(C)c1`, for which the EC50 in [5] is > 38 µM (not active); in assay [6], 38.5 µM (active).
Take `Cc1c2c(cc3c1[nH]c1ccccc13)C(c1ccc(F)cc1)=NCC2`: the values for the GI50 in the assay on P388/ADR, with SN12K1 and in the assay with P388 were 0.448 µM (active), 0.925 µM (active) and 0.809 µM (active), respectively.
Turning to `CC(C)CC#Cc1ccc2c(c1)O[C@@H](CN(C)C(=O)C1CCCCC1)[C@H](C)CN([C@@H](C)CO)S2(=O)=O`, the AC50 in assay [7] was 27.8 µM (active).
Consider `Cc1ccc(N2C(=O)NC(=O)/C(=C/c3cnc(-c4ccccc4)nc3)C2=O)cc1C`, for which, in [8], the IC50 is 1.66 µM (active).
For `Sc1nc2cc(Cl)c3cccnc3c2o1`, the EC50 was > 38 µM (not active) in [5], > 150 µM (inactive) in assay [6] and > 260 µM (inactive) in assay [4].
On to `CN(C)CCNC(=O)c1cccc2c1C(=O)c1ccccc1C2=O`, for which the GI50 with P388/ADR is 20.8 µM (inactive); in the assay with SN12K1 it was 49.5 µM (inactive); in the assay on P388, 19.7 µM (inactive).
On to `O=C(CCN1CCOCC1)Nc1c(O)nc2ccc(Br)cc2c1-c1ccccc1`, for which, at Aminopeptidase N, the IC50 is 93.9 µM (active).
Regarding `O=C1N/C(=N\c2ccccc2)S/C1=C\C=C\c1ccco1`, the IC50 in assay [8] is 12.2 µM (active).
`O=CNCCCc1nc2ccccc2n1Cc1cccc2ccccc12`: the figures for the EC50 in assay [5] and in [6] were 4.77 µM (active) and > 150 µM (inactive), respectively.
`CCCCCCCC[n+]1cccc2c3ccccc3ccc21`: the EC50 in assay [5] was 2.81 µM (active); in assay [6], 69.2 µM (active); in assay [9], 8.8 µM (active); in assay [10], 0.161 µM (active). For the same molecule, in the assay on INS1, the AC50 is 0.268 µM (active).
As for `O=C(NN/C=C1\C(=O)N(c2ccccc2Cl)C(=O)c2ccccc21)c1cccnc1`, at Aminopeptidase N, the IC50 was 32.6 µM (active).
Consider `O=C1CC(N2CCN(c3ccc(S(=O)(=O)N4CCOCC4)cc3)CC2)C(=O)N1Cc1ccccc1` (configuration not stated), for which the IC50 at Fatty acid synthase [2] was 8.79 µM (active); at Fatty acid synthase [3], 7.53 µM (active).
`O=C(CC1C[C@H](C(=O)N2CCOCC2)[C@@]2(CCC3CCCC3)c3[nH]c4ccccc4c3CCN2C1=O)NCCCn1ccnc1` (some centres not stated): the IC50 at Fatty acid synthase [2] is 4.37 µM (active); on Fatty acid synthase [3], 2.7 µM (active).
`COc1ccc(C2CC(c3ccccc3)=NN2c2ccccc2)c(C(=O)O)c1OC` (configuration not stated): the AC50 in assay [1] was 4.74 µM (active).
`CC1=CC2c3cccc4[nH]cc(c34)CC2N(C)C1` (configuration not stated): the GI50 in the assay on P388/ADR was 14.2 µM (inactive); in the assay with SN12K1, 27.2 µM (inactive); with P388 it was 31 µM (inactive).
